# Target: C5aR (Homo sapiens (Human), UniProt P21730)
# Experiment: Chemotaxis assay using U937 cells (C5aR mediated migration)
# Assay type: cell-based
# Conditions: read-out: Mig IC50
# How it was run: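 U937 monocytic cells, pretreated overnight with 0.5 mM cyclic AMP, placed at 100,000 cells in the upper well above 5 μm polycarbonate filters. Lower well held 0.03 nM C5a plus compound in HBSS/1% FBS; after 1.5 h at 37° C migrated cells counted directly or by CyQuant, giving IC50.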
# Chain of C5aR (P21730 whole entry): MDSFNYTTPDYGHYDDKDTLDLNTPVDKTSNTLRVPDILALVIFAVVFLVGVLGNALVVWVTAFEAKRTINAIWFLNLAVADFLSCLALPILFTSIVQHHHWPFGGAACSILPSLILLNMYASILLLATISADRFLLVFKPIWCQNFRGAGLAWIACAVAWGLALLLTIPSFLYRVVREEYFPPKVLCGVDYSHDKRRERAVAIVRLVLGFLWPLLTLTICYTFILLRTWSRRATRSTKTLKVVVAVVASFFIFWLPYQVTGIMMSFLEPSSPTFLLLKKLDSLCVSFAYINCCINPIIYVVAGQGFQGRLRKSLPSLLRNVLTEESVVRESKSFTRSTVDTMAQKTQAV
row,SMILES,IC50
1,Cc1cccc(OCC(C)C)c1-n1nc2c(c1-c1ccc(NC(N)=O)cc1)CN(Cc1c(C(F)(F)F)ccc(Cl)c1Cl)CC2 [Example 1.333],≤ 5 nM
2,Cc1cccc(CCC(C)C)c1-n1nc2c(c1-c1ccc(NC(N)=O)cc1)CN(CC(C)(C)C)CC2 [Example 1.336],5 to 50 nM
3,Cc1cccc(OCC(C)C)c1-n1nc2c(c1-c1ccc(NC(N)=O)cc1)CN(c1cnc(C(F)(F)F)cn1)CC2 [Example 1.341],5 to 50 nM
4,Cc1cccc(OCC(C)C)c1-n1nc2c(c1-c1ccc(NC(N)=O)cc1)CN(c1cc(C(F)(F)F)ccc1C(F)(F)F)CC2 [Example 1.342],≤ 5 nM
5,Cc1cccc(OCC(C)C)c1-n1nc2c(c1-c1ccc(NC(N)=O)cc1)CN(c1ccc(C(F)(F)F)cc1C(F)(F)F)CC2 [Example 1.343],≤ 5 nM
6,Cc1cccc(OCC(C)C)c1-n1nc2c(c1-c1ccc(NC(N)=O)cc1)CN(CC(C)(C(F)(F)F)C(F)(F)F)CC2 [Example 1.344],≤ 5 nM
7,Cc1ccc(C(C)C)nc1N1CCc2nn(-c3c(C)cccc3OCC(C)C)c(-c3ccc(NC(N)=O)cc3)c2C1 [Example 1.347],≤ 5 nM
8,Cc1cnc(C(C)C)cc1N1CCc2nn(-c3c(C)cccc3OCC(C)C)c(-c3ccc(NC(N)=O)cc3)c2C1 [Example 1.348],5 to 50 nM
9,Cc1cccc(OCC(C)C)c1-n1nc2c(c1-c1ccc(NC(N)=O)cc1)CN(Cc1c(F)cccc1Cl)CC2 [Example 1.350],5 to 50 nM
10,Cc1cccc(OCC(C)C)c1-n1nc2c(c1-c1ccc(NC(N)=O)cc1)CN(c1ncc(C(F)(F)F)cn1)CC2 [Example 1.352],5 to 50 nM
11,Cc1cccc(OCC(C)C)c1-n1nc2c(c1-c1ccc(NC(N)=O)cc1)CN(c1ncc(C(F)(F)F)cc1Cl)CC2 [Example 1.353],5 to 50 nM
12,Cc1cc(C(C)C)cnc1N1CCc2nn(-c3c(C)cccc3OCC(C)C)c(-c3ccc(NC(N)=O)cc3)c2C1 [Example 1.355],5 to 50 nM
13,Cc1cc(C)c(CN2CCc3nn(-c4c(C)cccc4OCC(C)C)c(-c4ccc(NC(N)=O)cc4)c3C2)c(C)c1 [Example 1.365],≤ 5 nM
14,Cc1cccc(OCC(C)C)c1-n1nc2c(c1-c1ccc(NC(N)=O)cc1)CN(Cc1c(Cl)cccc1Cl)CC2 [Example 1.367],5 to 50 nM
15,Cc1cccc(OCC(C)C)c1-n1nc2c(c1-c1ccc(NC(N)=O)cc1)CN(c1ccc(F)c(C(F)(F)F)c1)CC2 [Example 1.369],5 to 50 nM
16,Cc1cccc(OCC(C)C)c1-n1nc2c(c1-c1ccc(NC(N)=O)cc1)CN(c1ccc(C(C)(C)C)cn1)CC2 [Example 1.370],5 to 50 nM
17,Cc1ccccc1CN1CCc2nn(-c3c(C)cccc3OCC(C)C)c(-c3ccc(NC(N)=O)cc3)c2C1 [Example 1.371],5 to 50 nM
18,Cc1cccc(OCC(C)C)c1-n1nc2c(c1-c1ccc(NC(N)=O)cc1)CN(CC1(C(F)(F)F)CC1)CC2 [Example 1.372],5 to 50 nM
19,Cc1cccc(OCC(C)C)c1-n1nc2c(c1-c1ccc(NC(N)=O)cc1)CN(CC(C)(C)C(F)(F)F)CC2 [Example 1.373],5 to 50 nM
20,Cc1cccc(OCC(C)C)c1-n1nc2c(c1-c1ccc(NC(N)=O)cc1)CN(c1ncc(C(F)(F)F)cc1F)CC2 [Example 1.374],5 to 50 nM
21,Cc1cccc(OCC(C)C)c1-n1nc2c(c1-c1ccc(NC(N)=O)cc1)CN(c1ccc(C(F)(F)F)cc1Cl)CC2 [Example 1.375],5 to 50 nM
22,Cc1cccc(C)c1CN1CCc2nn(-c3c(C)cccc3OCC(C)C)c(-c3ccc(NC(N)=O)cc3)c2C1 [Example 1.376],5 to 50 nM

# Next, values leading:
row,IC50,SMILES
1,≤ 5 nM,Cc1cccc(OCC(C)C)c1-n1nc2c(c1-c1ccc(NC(N)=O)cc1)CN(Cc1c(Cl)cc(C(F)(F)F)cc1C(F)(F)F)CC2 [Example 1.332]
2,≤ 5 nM,Cc1cccc(OCC(C)C)c1-n1nc2c(c1-c1ccc(NC(N)=O)cc1)CN(Cc1c(F)cc(C(F)(F)F)cc1C(F)(F)F)CC2 [Example 1.334]
3,≤ 5 nM,Cc1cccc(OCC(C)C)c1-n1nc2c(c1-c1ccc(NC(N)=O)cc1)CN(Cc1cc(C(F)(F)F)ccc1C(F)(F)F)CC2 [Example 1.335]
4,5 to 50 nM,Cc1cccc(CCC(C)C)c1-n1nc2c(c1-c1ccc(NC(N)=O)cc1)CN(Cc1ccc(C(F)(F)F)cc1C(F)(F)F)CC2 [Example 1.337]
5,5 to 50 nM,Cc1cccc(OCC(C)C)c1-n1nc2c(c1-c1ccc(NC(N)=O)cc1)CN(Cc1cccc(C(F)(F)F)c1)CC2 [Example 1.338]
6,≤ 5 nM,Cc1cccc(OCC(C)C)c1-n1nc2c(c1-c1ccc(NC(N)=O)cc1)CN(c1nc(C(F)(F)F)ccc1C(F)(F)F)CC2 [Example 1.339]
7,5 to 50 nM,Cc1cc(C(F)(F)F)cnc1N1CCc2nn(-c3c(C)cccc3OCC(C)C)c(-c3ccc(NC(N)=O)cc3)c2C1 [Example 1.340]
8,≤ 5 nM,Cc1cccc(OCC(C)C)c1-n1nc2c(c1-c1ccc(NC(N)=O)cc1)CN(Cc1ccc(C(F)(F)F)cc1)CC2 [Example 1.345]
9,5 to 50 nM,Cc1cccc(OCC(C)C)c1-n1nc2c(c1-c1ccc(NC(N)=O)cc1)CN(CC(C(F)(F)F)C(F)(F)F)CC2 [Example 1.346]
10,50 to 500 nM,Cc1cccc(OCC(C)C)c1-n1nc2c(c1-c1ccc(NC(N)=O)cc1)CN(CC(C)(C)C#N)CC2 [Example 1.349]
11,≤ 5 nM,Cc1cccc(OCC(C)C)c1-n1nc2c(c1-c1ccc(NC(N)=O)cc1)CN(Cc1c(F)cccc1C(F)(F)F)CC2 [Example 1.351]
12,5 to 50 nM,COc1cccc(F)c1CN1CCc2nn(-c3c(C)cccc3OCC(C)C)c(-c3ccc(NC(N)=O)cc3)c2C1 [Example 1.354]
13,5 to 50 nM,Cc1cccc(OCC(C)C)c1-n1nc2c(c1-c1ccc(NC(N)=O)cc1)CN(Cc1c(F)cccc1F)CC2 [Example 1.356]
14,≤ 5 nM,Cc1cccc(OCC(C)C)c1-n1nc2c(c1-c1ccc(NC(N)=O)cc1)CN(Cc1ccc(C(F)(F)F)cc1C(F)(F)F)CC2 [Example 1.357]
15,≤ 5 nM,Cc1cccc(OCC(C)C)c1-n1nc2c(c1-c1ccc(NC(N)=O)cc1)CN(Cc1ccc(F)cc1C(F)(F)F)CC2 [Example 1.358]
16,≤ 5 nM,Cc1cccc(Cl)c1CN1CCc2nn(-c3c(C)cccc3OCC(C)C)c(-c3ccc(NC(N)=O)cc3)c2C1 [Example 1.359]
17,≤ 5 nM,Cc1cccc(F)c1CN1CCc2nn(-c3c(C)cccc3OCC(C)C)c(-c3ccc(NC(N)=O)cc3)c2C1 [Example 1.360]
18,≤ 5 nM,Cc1cccc(OCC(C)C)c1-n1nc2c(c1-c1ccc(NC(N)=O)cc1)CN(Cc1ccccc1C(F)(F)F)CC2 [Example 1.361]
19,≤ 5 nM,Cc1cccc(OCC(C)C)c1-n1nc2c(c1-c1ccc(NC(N)=O)cc1)CN(Cc1c(Cl)cccc1C(F)(F)F)CC2 [Example 1.362]
20,50 to 500 nM,Cc1cccc(OCC(C)C)c1-n1nc2c(c1-c1ccc(NC(N)=O)cc1)CN(c1cc(C(C)(C)O)ccc1F)CC2 [Example 1.363]
21,> 500 nM,Cc1cc(C(C)(C)O)cnc1N1CCc2nn(-c3c(C)cccc3OCC(C)C)c(-c3ccc(NC(N)=O)cc3)c2C1 [Example 1.364]
22,5 to 50 nM,Cc1cccc(OCC(C)C)c1-n1nc2c(c1-c1ccc(NC(N)=O)cc1)CN(CC1(C(F)(F)F)CCCC1)CC2 [Example 1.366]
23,5 to 50 nM,Cc1cccc(OCC(C)C)c1-n1nc2c(c1-c1ccc(NC(N)=O)cc1)CN(c1cc(C(F)(F)F)ccc1F)CC2 [Example 1.368]
24,5 to 50 nM,Cc1cc(C(F)(F)F)ccc1N1CCc2nn(-c3c(C)cccc3OCC(C)C)c(-c3ccc(NC(N)=O)cc3)c2C1 [Example 1.377]
